Reference: US7989495B2, “Compositions and methods for inhibiting NF-κB mediated tumorigenicity and adhesion dependent survival of cancer cells” (University of Utah Research Foundation, priority 2002, dated 2011)

Legend:
Format in all cases: cell-based
[1] = tested on: transiently suspended Caco-2 cells; test: Apoptosis (annexin V) of transiently suspended cells allowed to readhere; conditions: treated
Description: Single cell suspensions were plated at 100,000 cells per well in 24-well plates in media containing DMSO, BAY 11-7082, BAY 11-7085, or MG-132 for 8-24 hours in an incubator. Alternatively, DMSO, BAY 11-7082, BAY 11-7085, or MG-132 were added to cells that were confluent and adherent for several days. The nonadherent cells were aspirated off with the media and spun for 3 minutes at 2,000 rpm in 15 ml polypropylene tubes. The adherent cells were washed twice with PBS, dispersed in trypsin, and spun down for 3 minutes at 2,000 rpm in 15 ml polypropylene tubes. The nonadherent and adherent cells were resuspended in 1× binding buffer (10 mM HEPES/NaOH, pH 7.4, 140 mM NaCl, and 2.5 mM CaCl2) to a final concentration of 10^6 cells/ml. […] 400 μl of binding buffer was added to each tube and the cells were analyzed by flow cytometry immediately. The percent of apoptosis was determined as the percent of annexin V-positive, propidium iodide-negative cells of the total cells counted.
Since trypsin can activate protease-activated receptor-2 in colon cancer cell lines, which then results in increased cell proliferation, (Darmoul et al., 2001) NF-κB activation was determined in adherent and confluent DLD-1, HCT-116, Caco-2 and HT-29 cells that were removed from plastic dishes by trypsin or scraping. […]

c-IAP-1 = test: Immunoblot of anti-apoptotic proteins in HT-29 cells; conditions: transiently suspended or adherent HT-29; 20 μM; 8 hours
Description: (§1) The data points represent the means of triplicate experiments and the error bars the standard errors of the means. […] The percent of apoptotic cells was then determined by the annexin V assay. […] The results shown are typical of two separate experiments. […] Immunoblots were performed for c-IAP-2, TRAF-1, TRAF-2, and FLIP. All lanes contain equal total protein.
(§2) The cells were washed twice in ice cold PBS and then lysed in 4° C. lysis buffer (50 mM HEPES, 150 mM NaCl, 1.5 mM MgCl2, 1 mM EGTA, 100 mM NaF, 10 mM Na2PO4, 1 mM Na3VO4, 10% glycerol, 1% Triton X-100, and 1 μg/ml each of aprotinin, leupeptin, chymostatin, pepstatin) and clarified at 12,000 rpm at 4° C. for 15 minutes. The lysates were normalized for total protein concentration. Aliquots of the lysates were then mixed 1:1 in sample buffer (125 mM Tris-HCl (pH 6.8), 20% glycerol. 4% sodium dodecyl sulfate, 2% beta-mercaptoethanol, 10 μg/ml bromophenol blue) and boiled for 3 minutes. The samples were loaded onto SDS-PAGE gels (7.5 or 10% acrylamide). The proteins were transferred to nitrocellulose from the gels, then incubated in blocking buffer (1% bovine serum albumin (Bio-Rad), 100 mM Tris-Cl (pH7.4), 0.9% NaCl, 0.1% Nonidet) overnight at 4° C.
(§3) For immunodetection, the blocked blots were probed with primary antibody for 2 hours at 4° C. on a rocker. The blots were washed twice for 10 minutes each in blocking buffer, then incubated with a 1:2000 dilution of a rabbit-anti-mouse secondary antibody (for monoclonal primary antibodies; for polyclonal antibodies, this step was skipped). After two washes in blocking buffer (150 mM NaCl, 20 mM Tris pH 7.4, 0.5% Tween 20, 5% bovine serum albumin, and 0.2 gm/500 ml final concentration of sodium azide), the blots were finally incubated with a 1:2000 dilution of alkaline phosphatase-conjugated rabbit-anti-mouse antibodies (Jackson) in blocking buffer. Alkaline phosphatase was detected by a colorimetric reaction using a BCIP (5-Bromo-4-Chloro-3-Indolyl phosphate)/NBT (Nitroblue tetrazolium) kit (Zymed).

TRAF-2 = test: as above; conditions: 20 μM, 8 hours
Description: as §1, §2, §3

[2] = tested on: FLIP (54 kilodalton long isoform); test: as above; conditions: adherent HT-29; 20 μM
Description: as §1, §2, §3

TRAF-1 = test: as above; conditions: 20 μM, 8 hours
Description: as §1, §2, §3

[3] = tested on: HT-29 cells expressing IκB super-repressor; test: Readhesion survival of cells transduced with adenovirus IκB super-repressor (crystal violet); conditions: subapoptotic concentrations, readhesion 8 h
Description: (§4) The percentage of apoptotic cells was determined using the annexin V assay. The data points represent the averages of three experiments; bars, ±SE. E. DLD-1 and F. HT-29 cells were transduced with an adenovirus containing the IκB super-repressor construct. After 3 days, the cells were transiently suspended and allowed to readhere in the presence of subapoptotic concentrations of BAY 11-7085 or DMSO (vehicle) for 8 h. The data are expressed as fractions of cells surviving compared with the controls (no adenovirus) and were quantitatively determined by staining the remaining adherent cells with crystal violet.
(§5) DLD-1 and HT-29 cells that were approximately 60-70% confluent were transduced with Ad-IκB super-repressor by adding 1-50 μl of purified virus to the cells. […] In a parallel experiment, the transduced cells were resuspended and allowed to readhere in BAY 11-7085 for 8 h. The percentage of surviving (nonapoptotic) cells was determined using crystal violet staining.
(§6) The specific involvement of NF-κB in the apoptotic mechanism of BAY 11-7085 was examined specifically. […] The transduced DLD-1 and HT-29 cells were then transiently suspended and allowed to readhere at concentrations of BAY 11-7085 below the in vitro apoptotic threshold (>20 μM) for these cell lines. […] Therefore, inhibition of NF-κB is important to the apoptotic effect of BAY 11-7085 during colon cancer cell readhesion.

[4] = tested on: DLD-1 cells expressing IκB super-repressor; test: as above; conditions: subapoptotic concentrations, readhesion 8 h
Description: as §4, §5, §6

In the case of `CC(C)(C)c1ccc(S(=O)(=O)/C=C/C#N)cc1` [BAY 11-7085, (2E)-3-[4-(tertiarybutylphenyl)sulfonyl]-2-propenenitrile], the “BAY 11-7085-induced apoptosis during readhesion” value [1] is reported as “showed a moderate increase”, the c-IAP-1 protein expression (c-IAP-1) is reported as “No decrease in c-IAP-1 protein expression” and the TRAF-2 protein expression (TRAF-2) is reported as “decrease in the protein expression”. The “expression of the 54 kilodalton (long) isoform of FLIP” value [2] was “only a slight diminution”, the TRAF-1 protein expression (TRAF-1) was “decrease in the protein expression” and the “apoptotic threshold with IκB super-repressor expression compared with controls” value [3] was “significantly lowered the apoptotic threshold”. For the same compound, the “apoptotic threshold with IκB super-repressor expression compared with controls” value [4] was “significantly lowered the apoptotic threshold”.
